Test results: patent publication US7169604B1, “Method for PR-39 peptide mediated selective inhibition of IκBα degradation” (Beth Israel Deaconess Medical Center, priority 1998, dated 2007)
Peptide text beside a SMILES is read from it. * marks the point of attachment. Cbz = O=C(OCc1ccccc1)*

Tests used:
Assay type in all cases: cell-based, human
IκBα [1] = assay: IκBα protein levels in ECV304 cells by Western blotting; conditions: ECV304 cells, 2 hr, 10 μM
Method: For IκBα expression studies, normally proliferating wild type ECV304 cells (ECV) or ECV-PR-39 and ECV-E4 cells were lysed in the loading buffer, subjected to electrophoresis on 10% SDS-PAGE gel and transferred to a PVDF membrane. IκBα expression was then determined by Western blotting with anti-IκBα antibody (Santa Cruz, Inc.). ECV304 cells treated for 2 hr with 10 μM of lactacystin (LC) were used as control.
Western blotting of ECV cell lysate was carried out following 2 hr exposure to buffer (0) or 100 or 50 nM of PR-39. […] Clearly, exposure of wild type ECV304 cells to the synthetic PR-39 peptide led to a dose-dependent increase in IκBα levels.

IκBα [2] = assay: Reversibility of inhibition of IκBα degradation after washout in U937 cells; conditions: 10 μM for 45 min, washed, 45 min later TNF-α 1 ng/ml, 10 min
Method: In parallel cells were exposed to MG132, a rapidly reversible competitive inhibitor of the proteasome or with lactacystin which covalently and irreversibly modifies the active site threonine residues. The results are shown by FIG. 1F.
U937 cells were pretreated with 100 nM of PR-39, 10 μM of either MG132 or lactacystin (LC) or buffer (Control) for 45 min. These cells were then extensively washed with fresh medium. 45 min later TNF-α (1 ng/ml) was added to medium, and the extent of IκBα degradation was determined 10 min later by Western blotting.

IκBα [3] = assay: TNF-α induced degradation of IκBα in U937 cells; conditions: 45 min pretreatment with 10 μM, TNF-α 1 ng/ml, 10 min
Method: Tumor necrosis factor (TNF)-α is known to induce rapid degradation of IκBα by the Ub-proteasome pathway.
As shown by FIG. 1E, PR-39 prevents TNF-a induced degradation of IκBα. U937 cells were cultured in 10% FBs-RPMI medium in the absence (−) or presence of TNF-a (1 ng/ml). 10 min following TNF-α addition, the cells were washed and IκBα protein levels assessed by Western blotting.
Note that a […] 45 min of pretreatment with 100 nM of PR-39 or 10 μM of MG132 or lactacystin (LC) prior to addition of blocked TNF-α, blocked cytokine-induced degradation of IκBα expression.

NFκB = assay: NFκB-dependent luciferase reporter (pNFκB-Luc) in ECV304 cells; conditions: 45 min pretreatment with 10 μM, TNF-α 1 ng/ml
Method: The results are presented by FIG. 2A.
The effect of PR-39-mediated inhibition of IκBα degradation on NFκB-dependent transcription was tested in ECV304 cells transiently transfected with pNFκB-Luc reporter vector.

HSP70 = HSP70 expression by Western blotting
U937 cells = assay: Proteasome-dependent degradation of total cellular proteins (35S Met pulse-chase); conditions: Homo sapiens, U-937, 1 hr chase, chloroquin 45 μM, after 16 hr metabolic labeling, read-out: inhibition of total cell protein degradation
Method: Therefore the extent of degradation of long-lived cell proteins before or following exposure was compared to either PR-39 or MG132. The result is given by FIG. 3A.
Exponentially proliferating U937 cells were grown in 10% FBS-RPMI 1640 methionine-free medium supplemented with 200 μCi ^35S Met for 16 hr. Cells were then washed with complete RPMI 1640 medium 3 times and cultured in 10% FBS-RPMI (chase) in the presence of 10 μM of either PR-39 or MG132 or an equal volume of PBS. Chloroquin (45 μM) was added to all cultures to prevent the lysosomal protein degradation. 1 hr later the cells were lysed, and TCA soluble ^35S counts were measured in a liquid scintillation counter (LKB). All experiments were carried out in triplicate and repeated three times. The data are shown as mean±standard deviation.

Row | Compound | IκBα levels (IκBα [1]) | extent of IκBα degradation after washout (IκBα [2]) | TNF-α caused decline of the level of IκBα (IκBα [3]) | TNF-α induced increase in luciferase activity (NFκB) | HSP70 expression (HSP70; U937 cells, 1 μM, 3 hr exposure) | HSP70 levels (HSP70; cultured ECV304 cells, 10 μM) | inhibition at 10 µM (U937 cells) [%]
1 | CC(=O)N[C@@H](CSC(=O)[C@]1([C@@H](O)C(C)C)NC(=O)[C@H](C)[C@@H]1O)C(=O)O [lactacystin] | increased IκBα levels | irreversibly blocked proteasome-mediated degradation of IκBα | markedly reduced | completely blocked | – | – | –
2 | CC(C)C[C@@H](C=O)NC(=O)[C@H](CC(C)C)NC(=O)[C@H](CC(C)C)NC(=O)OCc1ccccc1 [MG132, reference compound] (Cbz-Leu-Leu-Leu-aldehyde) | – | complete disappearance of IκBα protein | markedly reduced | completely blocked | appearance of HSP70 expression | striking increase in HSP70 levels | ~50
